Marks after values point to notes of the source that are not given here.
Legend:
TNF-α = test: Whole blood assay, LPS stimulation, MSD cytokine detection; format: cell-based; conditions: fresh whole bovine blood
IL-6 = test: as above; format: cell-based; conditions: fresh whole bovine blood
IL-1β = test: as above; format: cell-based, bovine; conditions: fresh whole bovine blood, LPS stimulation; drug concentration giving overstimulation (OS) of IL-1β
[1] = system: BRD pathogens, M. haemolytica and P. multocida; test: In-vitro MIC model, BRD pathogen screening panel; format: cell-based, Mannheimia haemolytica; Pasteurella multocida; conditions: at least one BRD strain

IC50 (TNF-α)	Structure (SMILES)	IL-1ß OS of LPS (IL-1β)	MIC flag at the example number (Table E) [1]	further results
3 µM	CCCNC[C@]1(O)[C@H](C)O[C@@H](O[C@H]2[C@H](C)[C@@H](O[C@@H]3O[C@H](C)C[C@H](NC)[C@H]3Oc3ccc(F)c(F)c3)[C@](C)(O)C[C@@H](C)CN[C@H](C)[C@@H](O)[C@](C)(O)[C@@H](CC)OC(=O)[C@@H]2C)C[C@@]1(C)OC [Example E-36]	16 µM	E-36* (MIC ≤ 64 μg/mL for at least one BRD strain)	IC50 (IL-6): 10 µM
22 µM	CCCNC[C@]1(O)[C@H](C)O[C@@H](O[C@H]2[C@H](C)[C@@H](O[C@@H]3O[C@H](C)C[C@H](NC)[C@H]3Oc3ccc(OC)nc3OC)[C@](C)(O)C[C@@H](C)CN[C@H](C)[C@@H](O)[C@](C)(O)[C@@H](CC)OC(=O)[C@@H]2C)C[C@@]1(C)OC [Example E-77]	18 µM	E-77* (MIC ≤ 64 μg/mL for at least one BRD strain)	IC50 (IL-6): 66 µM
25 µM	CCCNC[C@]1(O)[C@H](C)O[C@@H](O[C@H]2[C@H](C)[C@@H](O[C@@H]3O[C@H](C)C[C@H](NC)[C@H]3Oc3ccc(OC)c(OC(C)C)c3)[C@](C)(O)C[C@@H](C)CN[C@H](C)[C@@H](O)[C@](C)(O)[C@@H](CC)OC(=O)[C@@H]2C)C[C@@]1(C)OC [Example E-20]	100 µM	E-20* (MIC ≤ 64 μg/mL for at least one BRD strain)	IC50 (IL-6): 40 µM
5 µM	CC[C@H]1OC(=O)[C@H](C)[C@@H](O[C@H]2C[C@@](C)(OC)[C@](O)(CNc3ccccc3)[C@H](C)O2)[C@H](C)[C@@H](O[C@@H]2O[C@H](C)C[C@H](N(C)C)[C@H]2Oc2ccccc2)[C@](C)(O)C[C@@H](C)CN[C@H](C)[C@@H](O)[C@]1(C)O [Example E-67]	6 µM	E-67* (MIC ≤ 64 μg/mL for at least one BRD strain)	IC50 (IL-6): 8 µM
15 µM	CCCNC[C@]1(O)[C@H](C)O[C@@H](O[C@H]2[C@H](C)[C@@H](O[C@@H]3O[C@H](C)C[C@H](NC)[C@H]3Oc3cccc(F)c3)[C@](C)(O)C[C@@H](C)CN[C@H](C)[C@@H](O)[C@](C)(O)[C@@H](CC)OC(=O)[C@@H]2C)C[C@@]1(C)OC [Example E-7]	40 µM	E-7* (MIC ≤ 64 μg/mL for at least one BRD strain)	IC50 (IL-6): 40 µM
44 µM	CC[C@H]1OC(=O)[C@H](C)[C@@H](O)[C@H](C)[C@@H](O[C@@H]2O[C@H](C)C[C@H](N(C)C(=O)N(C)c3ccccc3)[C@H]2Oc2ccc(OC)cc2)[C@](C)(O)C[C@@H](C)CN(C)[C@H](C)[C@@H](O)[C@]1(C)O [Example C-13]	40 µM	–	MIC flag at the example number (Table C) [1]: C-13* (MIC ≤ 64 μg/mL for at least one BRD strain)
18 µM	CCCNC[C@]1(O)[C@H](C)O[C@@H](O[C@H]2[C@H](C)[C@@H](O[C@@H]3O[C@H](C)C[C@H](NC)[C@H]3Oc3cc(F)c(OC)c(F)c3)[C@](C)(O)C[C@@H](C)CN[C@H](C)[C@@H](O)[C@](C)(O)[C@@H](CC)OC(=O)[C@@H]2C)C[C@@]1(C)OC [Example E-9]	40 µM	E-9* (MIC ≤ 64 μg/mL for at least one BRD strain)	IC50 (IL-6): 30 µM
–	CCCNC[C@]1(O)[C@H](C)O[C@@H](O[C@H]2[C@H](C)[C@@H](O[C@@H]3O[C@H](C)C[C@H](NC)[C@H]3Oc3cccnc3OCC)[C@](C)(O)C[C@@H](C)CN[C@H](C)[C@@H](O)[C@](C)(O)[C@@H](CC)OC(=O)[C@@H]2C)C[C@@]1(C)OC [Example E-59]	–	E-59* (MIC ≤ 64 μg/mL for at least one BRD strain)	–
–	CC[C@H]1OC(=O)[C@H](C)[C@@H](O[C@H]2C[C@@](C)(OC)[C@@H](O)[C@H](C)O2)[C@H](C)[C@@H](O[C@@H]2O[C@H](C)C[C@H](NC)[C@H]2Oc2ccc3ncccc3c2)[C@](C)(O)C[C@@H](C)CN(C)[C@H](C)[C@@H](O)[C@]1(C)O [Example A-8]	–	–	MIC flag at the example number (Table A) [1]: A-8* (MIC ≤ 64 μg/mL for at least one BRD strain)
–	CC[C@H]1OC(=O)[C@H](C)[C@@H](O[C@H]2C[C@@](C)(OC)[C@@H](O)[C@H](C)O2)[C@H](C)[C@@H](O[C@@H]2O[C@H](C)C[C@H](N(C)C)[C@H]2Oc2ccccc2OC)[C@](C)(O)C[C@@H](C)CN(C)[C@H](C)[C@@H](O)[C@]1(C)O [Example A-46]	–	–	MIC flag at the example number (Table A) [1]: A-46* (MIC ≤ 64 μg/mL for at least one BRD strain)
–	CC[C@H]1OC(=O)[C@H](C)[C@@H](O[C@H]2C[C@@](C)(OC)[C@](O)(CNCCN(C)C)[C@H](C)O2)[C@H](C)[C@@H](O[C@@H]2O[C@H](C)C[C@H](N(C)C)[C@H]2Oc2ccc(OC)cc2)[C@](C)(O)C[C@@H](C)CN[C@H](C)[C@@H](O)[C@]1(C)O [Example E-107]	–	E-107* (MIC ≤ 64 μg/mL for at least one BRD strain)	–
–	CCCNC[C@]1(O)[C@H](C)O[C@@H](O[C@H]2[C@H](C)[C@@H](O[C@@H]3O[C@H](C)C[C@H](NC)[C@H]3Oc3ccc(OC(F)(F)F)cc3)[C@](C)(O)C[C@@H](C)CN[C@H](C)[C@@H](O)[C@](C)(O)[C@@H](CC)OC(=O)[C@@H]2C)C[C@@]1(C)OC [Example E-101]	–	E-101* (MIC ≤ 64 μg/mL for at least one BRD strain)	–
–	CCCNC[C@]1(O)[C@H](C)O[C@@H](O[C@H]2[C@H](C)[C@@H](O[C@@H]3O[C@H](C)C[C@H](NC)[C@H]3Oc3ccc(F)cc3C)[C@](C)(O)C[C@@H](C)CN[C@H](C)[C@@H](O)[C@](C)(O)[C@@H](CC)OC(=O)[C@@H]2C)C[C@@]1(C)OC [Example E-23]	–	E-23* (MIC ≤ 64 μg/mL for at least one BRD strain)	–
–	CCCNC[C@]1(O)[C@H](C)O[C@@H](O[C@H]2[C@H](C)[C@@H](O[C@@H]3O[C@H](C)C[C@H](NC)[C@H]3Oc3ncccn3)[C@](C)(O)C[C@@H](C)CN[C@H](C)[C@@H](O)[C@](C)(O)[C@@H](CC)OC(=O)[C@@H]2C)C[C@@]1(C)OC [Example E-33]	–	E-33* (MIC ≤ 64 μg/mL for at least one BRD strain)	–
–	CC[C@H]1OC(=O)[C@H](C)[C@@H](O[C@H]2C[C@@](C)(OC)[C@@H](O)[C@H](C)O2)[C@H](C)[C@@H](O[C@@H]2O[C@H](C)C[C@H](N(C)C)[C@H]2Oc2cnc(OC)nc2)[C@](C)(O)C[C@@H](C)CN(C)[C@H](C)[C@@H](O)[C@]1(C)O [Example A-7]	–	–	MIC flag at the example number (Table A) [1]: A-7* (MIC ≤ 64 μg/mL for at least one BRD strain)
–	CC[C@H]1OC(=O)[C@H](C)[C@@H](O)[C@H](C)[C@@H](O[C@@H]2O[C@H](C)C[C@H](N(C)C(=O)N(C)c3ccccc3)[C@H]2Oc2ccc3ncsc3c2)[C@](C)(O)C[C@@H](C)CN(C)[C@H](C)[C@@H](O)[C@]1(C)O [Example C-11]	–	–	MIC flag at the example number (Table C) [1]: C-11* (MIC ≤ 64 μg/mL for at least one BRD strain)
–	CCCNC[C@]1(O)[C@H](C)O[C@@H](O[C@H]2[C@H](C)[C@@H](O[C@@H]3O[C@H](C)C[C@H](NC)[C@H]3Oc3cccc(OC(F)(F)F)c3)[C@](C)(O)C[C@@H](C)CN[C@H](C)[C@@H](O)[C@](C)(O)[C@@H](CC)OC(=O)[C@@H]2C)C[C@@]1(C)OC [Example E-54]	–	E-54* (MIC ≤ 64 μg/mL for at least one BRD strain)	–
–	CCCNC[C@]1(O)[C@H](C)O[C@@H](O[C@H]2[C@H](C)[C@@H](O[C@@H]3O[C@H](C)C[C@H](NC)[C@H]3Oc3ccccc3Cl)[C@](C)(O)C[C@@H](C)CN[C@H](C)[C@@H](O)[C@](C)(O)[C@@H](CC)OC(=O)[C@@H]2C)C[C@@]1(C)OC [Example E-14]	–	E-14* (MIC ≤ 64 μg/mL for at least one BRD strain)	–
–	CCCNC[C@]1(O)[C@H](C)O[C@@H](O[C@H]2[C@H](C)[C@@H](O[C@@H]3O[C@H](C)C[C@H](N(C)C)[C@H]3Oc3ccc(C(=O)N4CCCC4)cc3)[C@](C)(O)C[C@@H](C)CN[C@H](C)[C@@H](O)[C@](C)(O)[C@@H](CC)OC(=O)[C@@H]2C)C[C@@]1(C)OC [Example E-95]	–	E-95* (MIC ≤ 64 μg/mL for at least one BRD strain)	–
–	CC[C@H]1OC(=O)[C@H](C)[C@@H](O[C@H]2C[C@@](C)(OC)[C@](O)(CNc3ccccc3)[C@H](C)O2)[C@H](C)[C@@H](O[C@@H]2O[C@H](C)C[C@H](NC)[C@H]2Oc2ccccc2)[C@](C)(O)C[C@@H](C)CN[C@H](C)[C@@H](O)[C@]1(C)O [Example E-137]	–	E-137* (MIC ≤ 64 μg/mL for at least one BRD strain)	–
–	CCCNC[C@]1(O)[C@H](C)O[C@@H](O[C@H]2[C@H](C)[C@@H](O[C@@H]3O[C@H](C)C[C@H](N(C)C)[C@H]3Oc3cccc(C)c3)[C@](C)(O)C[C@@H](C)CN[C@H](C)[C@@H](O)[C@](C)(O)[C@@H](CC)OC(=O)[C@@H]2C)C[C@@]1(C)OC [Example E-123]	–	E-123* (MIC ≤ 64 μg/mL for at least one BRD strain)	–
–	CCCNC[C@]1(O)[C@H](C)O[C@@H](O[C@H]2[C@H](C)[C@@H](O[C@@H]3O[C@H](C)C[C@H](NC)[C@H]3Oc3ccc(F)cc3F)[C@](C)(O)C[C@@H](C)CN[C@H](C)[C@@H](O)[C@](C)(O)[C@@H](CC)OC(=O)[C@@H]2C)C[C@@]1(C)OC [Example E-58]	–	E-58* (MIC ≤ 64 μg/mL for at least one BRD strain)	–
–	CC[C@H]1OC(=O)[C@H](C)[C@@H](O[C@H]2C[C@@](C)(OC)[C@@H](O)[C@H](C)O2)[C@H](C)[C@@H](O[C@@H]2O[C@H](C)C[C@H](NC)[C@H]2Oc2cncc(C(F)(F)F)c2)[C@](C)(O)C[C@@H](C)CN(C)[C@H](C)[C@@H](O)[C@]1(C)O [Example A-13, (2R,3S,4R,5R,8R,10R,11R,12S,13S,14R)-2-ethyl-3,4,10-trihydroxy-13-(((2R,4R,5S,6S)-5-hydroxy-4-methoxy-4,6-dimethyltetrahydro-2H-pyran-2-yl)oxy)-3,5,6,8,10,12,14-heptamethyl-11-(((2S,3R,4S,6R)-6-methyl-4-(methylamino)-3-((5-(trifluoromethyl)pyridin-3-yl)oxy)tetrahydro-2H-pyran-2-yl)oxy)-1-oxa-6-azacyclopentadecan-15-one]	–	–	MIC flag at the example number (Table A) [1]: A-13* (MIC ≤ 64 μg/mL for at least one BRD strain)

From patent US12390441B2, “Immunomodulating o-het/aryl azalides” (Zoetis Services LLC, priority 2020, dated 2025)
